Where a name gives a salt, the structure may show the parent alone.
Target: T1, h5-HT5A receptor (Homo sapiens, UniProt P47898)
T1 construct: expressed in transfected cells; host or cells: HEK293
Experiment: [3H]5-CT binding assay h5-HT5A
Details: membranes from HEK293 cells expressing h5-HT5A, 2.5 nM [3H]5-CT; read-out: Binding affinity 5-HT5A (Ki)
Procedure: 1. [^3H]5-CT binding assay h5-HT5A
Membranes from HEK293-cells, which permanently express the h5-HT5A receptor gene, were incubated in 100 mM Tris-HCl-buffer (pH 7.7), containing 1 mM EDTA in the presence of 2.5 nM [^3H]5-CT (600 μl total volume). The total binding is defined as the binding which is observed when the membranes are incubated alone in the presence of the radioligand. The inhibition induced by the compound is determined by incubation of cell membranes in the presence of the radioligand, and of different concentrations of the compound of interest. Unspecific binding is defined by the binding of [^3H]5-CT, which is obtained by incubation of the membranes as for the total binding but in the presence of 10 μM methiothepine. Following an incubation of 75 minutes at 30° C. the membrane suspension is filtered through GF/B-filters, wrapped in 0.03% PEI, wherein a Skatron® harvest system is used. The radioactivity retained in the filter is quantified by liquid scintillation counting.
In both assays, different concentrations of the test substances are used, and the Ki or the IC50 values are determined.

T1 sequence (P47898 whole entry): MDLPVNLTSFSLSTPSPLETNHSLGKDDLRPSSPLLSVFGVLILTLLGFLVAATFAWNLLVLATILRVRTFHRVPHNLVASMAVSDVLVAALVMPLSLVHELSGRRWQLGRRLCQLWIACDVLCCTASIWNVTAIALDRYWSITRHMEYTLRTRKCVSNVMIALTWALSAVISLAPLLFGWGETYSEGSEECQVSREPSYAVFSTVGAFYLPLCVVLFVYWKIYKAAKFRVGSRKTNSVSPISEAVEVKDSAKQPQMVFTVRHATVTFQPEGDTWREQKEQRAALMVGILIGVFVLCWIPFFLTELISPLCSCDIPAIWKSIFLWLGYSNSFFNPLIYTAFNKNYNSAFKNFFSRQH

Compound | Ki [nM]
COc1cccc(OC)c1CNC(=N)Nc1nc(C2CCCN2C)cs1 (stereo not shown) [Example 149, N-(2,6-dimethoxybenzyl)-N′-[4-(1-methylpyrrolidine-2-yl)-1,3-thiazole-2-yl]guanidine] | < 50
COc1cccc(Cl)c1CNC(=N)Nc1nc(-c2ccccc2)cs1 [Example 132, N-(2-chloro-6-methoxybenzyl)-N′-(4-phenyl-1,3-thiazole-2-yl)guanidine] | < 50
COc1ccccc1CNC(=N)Nc1ccsc1 [Example 30, N-(2-methoxy-benzyl)-N′-thiophene-3-yl-guanidine acetate] | 50 to 500
COc1cccc(F)c1CNC(=N)Nc1nc(C)cs1 [Example 86, N-(2-fluoro-6-methoxybenzyl)-N′-(4-methyl-1,3-thiazole-2-yl)guanidine] | < 50
COc1ccc(F)cc1CNC(=N)Nc1nc(C)cs1 [Example 130, N-(5-fluoro-2-methoxybenzyl)-N′-(4-methyl-1,3-thiazole-2-yl)guanidine fumarate] | 50 to 500
COc1cccc(OC)c1CNC(=N)Nc1nc(C2CCCN2)cs1 (stereo not shown) [Example 147, N-(2,6-dimethoxybenzyl)-N′-(4-pyrrolidine-2-yl-1,3-thiazole-2-yl)guanidine hydrochloride] | < 50
COc1cccc(OC)c1CNC(=N)Nc1nc(C2CCCN2Cc2ccccc2)cs1 (stereo not shown) [Example 151, N-[4-(1-benzylpyrrolidine-2-yl)-1,3-thiazole-2-yl]-N′-(2,6-dimethoxybenzyl)guanidine] | < 50
COc1cccc(OC)c1CNC(=N)Nc1nc(-c2ccc3c(c2)OCO3)cs1 [Example 69, N-[4-(1,3-benzodioxol-5-yl)-1,3-thiazole-2-yl]-N′-(2,6-dimethoxybenzyl)guanidine hydrobromide] | < 50
COc1cccc(OC)c1CNC(=N)Nc1nc(-c2ccc(C)cc2)cs1 [Example 57, N-(2,6-dimethoxybenzyl)-N′-[4-(4-methylphenyl)-1,3-thiazole-2-yl]guanidine] | < 50
COc1cccc(OC)c1CNC(=N)Nc1nc(-c2cc(C)cs2)cs1 [Example 121, N-(2,6-dimethoxybenzyl)-N′-[4-(4-methyl-2-thienyl)-1,3-thiazole-2-yl]guanidine] | < 50
CCOc1ccc2nc(NC(=N)NCc3ccccc3OC)sc2c1 [Example 170, N-(6-ethoxy-1,3-benzothiazole-2-yl)-N′-(2-methoxybenzyl)guanidine fumarate] | 50 to 500
COc1cccc(OC)c1CNC(=N)Nc1nc2c(s1)CN(Cc1ccccc1)CC2 [Example 226, N-(5-benzyl-4,5,6,7-tetrahydro[1,3]thiazolo[5,4-c]pyridine-2-yl)-N′-(2,6-dimethoxybenzyl)guanidine] | < 50
COc1cccc(OC)c1CNC(=N)Nc1nc2c(s1)Cc1ccccc1-2 [Example 80, N-(2,6-dimethoxybenzyl)-N′-8H-indeno[1,2-d][1,3]thiazole-2-ylguanidine hydrobromide] | < 50
COc1cccc(OC)c1CNC(=N)Nc1nc(Cc2ccc(F)cc2)cs1 [Example 143, N-(2,6-dimethoxybenzyl)-N′-[4-(4-fluorobenzyl)-1,3-thiazole-2-yl]guanidine] | < 50
COc1cccc(OC)c1CNC(=N)Nc1nc(-c2ccc(S(C)(=O)=O)cc2)cs1 [Example 82, N-(2,6-dimethoxybenzyl)-N′-{4-[4-(methylsulfonyl)phenyl]-1,3-thiazole-2-yl}guanidine hydrobromide] | 50 to 500
COc1ccc(F)cc1-c1csc(NC(=N)NCc2c(OC)cccc2OC)n1 [Example 112, hydrobromide] | < 50
COc1ccc(CNC(=N)Nc2nccs2)cc1 [Example 15, N-(4-methoxybenzyl)-N′-1,3-thiazole-2-ylguanidine] | > 500
COc1cccc(-c2csc(NC(=N)NCc3c(OC)cccc3OC)n2)c1 [Example 61, N-(2,6-dimethoxybenzyl)-N′-[4-(3-methoxyphenyl)-1,3-thiazole-2-yl]guanidine] | < 50
COc1cccc(OC)c1CNC(=N)Nc1nc(-c2ccc(C(C)C)cc2)cs1 [Example 95, N-(2,6-dimethoxybenzyl)-N′-[4-(4-isopropylphenyl)-1,3-thiazole-2-yl]guanidine] | 50 to 500
COc1ccccc1CNC(=N)Nc1nc(-c2ccccc2F)cs1 [Example 98, N-[4-(2-fluorophenyl)-1,3-thiazole-2-yl]-N′-(2-methoxybenzyl)guanidine] | 50 to 500
COc1cccc(OC)c1CNC(=N)Nc1nc(-c2cccnc2)cs1 [Example 50, N-(2,6-dimethoxybenzyl)-N′-(4-pyridine-3-yl-1,3-thiazole-2-yl)guanidine acetate] | < 50
COc1cccc(OC)c1CNC(=N)Nc1nc(-c2ncc(F)cc2F)cs1 [Example 145, N-[4-(3,5-difluoropyridine-2-yl)-1,3-thiazole-2-yl]-N′-(2,6-dimethoxybenzyl)guanidine] | < 50

Compound | Ki [nM]
COc1cccc(OC)c1CNC(=N)Nc1nc(-c2ccc(F)cc2)c(C)s1 [Example 118, N-(2,6-dimethoxybenzyl)-N′-[4-(4-fluorophenyl)-5-methyl-1,3-thiazole-2-yl]guanidine] | < 50
COc1cccc(OC)c1CNC(=N)Nc1nc(-c2ccccc2F)cs1 [Example 70, N-(2,6-dimethoxybenzyl)-N′-[4-(2-fluorophenyl)-1,3-thiazole-2-yl]guanidine hydrobromide] | < 50
COc1cccc(OC)c1CNC(=N)Nc1nccs1 [Example 5, N-(2,6-dimethoxybenzyl)-N′-1,3-thiazole-2-ylguanidine] | < 50
COc1cccc(OC)c1CNC(=N)Nc1nc(-c2ccsc2)cs1 [Example 72, N-(2,6-dimethoxybenzyl)-N′-[4-(3-thienyl)-1,3-thiazole-2-yl]guanidine acetate] | < 50
COc1ccccc1CNC(=N)Nc1nnc[nH]1 [Example 184, N-(2-methoxybenzyl)-N′-4H-1,2,4-triazole-3-ylguanidine acetate] | > 500
COc1cccc(OC)c1CNC(=N)Nc1nc(-c2csc3ccccc23)cs1 [Example 96, N-[4-(1-benzothiene-3-yl)-1,3-thiazole-2-yl]-N′-(2,6-dimethoxybenzyl)guanidine hydrobromide] | < 50
COc1cccc(OC)c1CNC(=N)Nc1nc(-c2ccc(Cl)cc2)cs1 [Example 38, N-[4-(4-chlorophenyl)-1,3-thiazole-2-yl]-N′-(2,6-dimethoxybenzyl)guanidine] | 50 to 500
COc1cccc(OC)c1CNC(=N)Nc1nc(-c2ncccn2)cs1 [Example 122, N-(2,6-dimethoxybenzyl)-N′-(4-pyrimidine-2-yl-1,3-thiazole-2-yl)guanidine hydrobromide] | < 50
COc1ccccc1CNC(=N)Nc1nc2ccccc2[nH]1 [Example 93, N-1H-benzimidazole-2-yl-N′-(2-methoxybenzyl)guanidine acetate] | < 50
COc1cccc(OC)c1CNC(=N)Nc1ncc(-c2ccc(F)cc2)s1 [Example 128, N-(2,6-dimethoxybenzyl)-N′-[5-(4-fluorophenyl)-1,3-thiazole-2-yl]guanidine] | < 50
COc1cccc(OC)c1CNC(=N)Nc1ccn(-c2ccccc2)n1 [Example 219, N-(2,6-dimethoxybenzyl)-N′-(1-phenyl-1H-pyrazole-3-yl)guanidine] | < 50
COc1ccccc1CNC(=N)Nc1cc(-c2ccc(Cl)cc2)[nH]n1 [Example 211, N-[5-(4-chlorophenyl)-1H-pyrazole-3-yl]-N′-(2-methoxybenzyl)guanidine] | < 50
COc1ccccc1-c1csc(NC(=N)NCc2c(OC)cccc2OC)n1 [Example 75, N-(2,6-dimethoxybenzyl)-N′-[4-(2-methoxyphenyl)-1,3-thiazole-2-yl]guanidine hydrobromide] | < 50
COc1cccc(Cl)c1CNC(=N)Nc1nc(-c2ccc(F)cc2)cs1 [Example 136, N-(2-chloro-6-methoxybenzyl)-N′-[4-(4-fluorophenyl)-1,3-thiazole-2-yl]guanidine] | 50 to 500
COc1cccc(OC)c1CNC(=N)Nc1nc(-c2ccc(F)cc2Cl)cs1 [Example 116, N-[4-(2-chloro-4-fluorophenyl)-1,3-thiazole-2-yl]-N′-(2,6-dimethoxybenzyl)guanidine] | < 50
COc1cccc(OC)c1CNC(=N)Nc1nc(C23CC4CC(CC(C4)C2)C3)cs1 [Example 85, N-[4-(1-adamantyl)-1,3-thiazole-2-yl]-N′-(2,6-dimethoxybenzyl)guanidine hydrobromide] | < 50
N=C(NCc1ccccc1OCc1ccccc1)Nc1nccs1 [Example 17, N-[2-(benzyloxy)benzyl]-N′-1,3-thiazole-2-ylguanidine] | 50 to 500
COc1ccccc1CNC(=N)Nc1nc2ccccc2s1 [Example 28, N-1,3-benzothiazole-2-yl-N′-(2-methoxybenzyl)guanidine (2E)-But-2-endioate] | 50 to 500
COc1ccccc1CNC(=N)Nc1nc(C)cs1 [Example 39, N-(2-methoxybenzyl)-N′-(4-methyl-1,3-thiazole-2-yl)guanidine (2E)-But-2-endioate] | < 50
COc1cccc(OC)c1CNC(=N)Nc1nc(-c2ccc3ccccc3c2)cs1 [Example 34, N-(2,6-dimethoxybenzyl)-N′-[4-(2-naphthyl)-1,3-thiazole-2-yl]guanidine] | < 50
COc1ccccc1CNC(=N)Nc1nnc(C)s1 [Example 178, N-(2-methoxybenzyl)-N′-(5-methyl-1,3,4-thiadiazole-2-yl)guanidine] | 50 to 500

Reference: patent publication US8481576B2 (Abbott GmbH & Co. KG, priority 2004, dated 2013)
